Source: the SangsterLogP compilation

Experiment: method code SF, from Hansch, C. & Leo, A. (1987). Log P database [Dataset]. Pomona College Medicinal Chemistry Project.

Compound: CCC(C)NC(=O)C(=Cc1ccccc1)c1ccccc1 (stereo unspecified)
- logP: 4.05

Compound: CC1CCC(O)CC1 (stereo unspecified)
- logP: 1.79

Compound: CC(C)CC(CC(C)C)OC(=O)c1ccc(NC(=O)N(C)C)cc1Cl
- logP: 5.15

Compound: CCC(C)NC(=O)/C(Br)=C\c1ccccc1 (stereo unspecified)
- logP: 3.56

Compound: O=S1(=O)NC(c2ccccc2)=Nc2ccccc21
- logP: 1.78

Compound: CC(=O)OCC1=C(C(=O)O)N2C(=O)[C@@H](NC(=O)CBr)[C@H]2SC1
- logD (pH 3.0): -0.7

Compound: CCOC(=O)C(=Cc1ccccc1[N+](=O)[O-])C(=O)OCC
- logP: 2.54

Compound: CS(=O)(=O)N(c1ccccc1)S(C)(=O)=O
- logP: 0.62

Compound: CC1(C)O[C@@H]2C[C@H]3[C@@H]4C[C@H](F)C5=CC(=O)C=C[C@]5(C)[C@@]4(F)[C@@H](O)C[C@]3(C)[C@]2(C(=O)CO)O1
- logP: 2.48

Compound: CN(C(=O)c1ccccc1)c1ccccc1
- logP: 2.36

Compound: NC(=O)c1cccc(O)c1
- logP: 0.39

Compound: CCOC(=O)c1cccs1
- logP: 2.33

Compound: Cn1c(=O)ccc2ccccc21
- logP: 1.45

Compound: O=c1[nH]c2ccccc2s1
- logP: 1.76

Compound: CC(=O)Oc1cccc([N+](=O)[O-])c1
- logP: 1.82

Compound: c1ccn2nnnc2c1
- logP: -0.09

Compound: O=C(O)c1cccc([N+](=O)[O-])c1C(=O)O
- logD (pH 1.0): 0.75

Compound: CC(=O)Nc1cccc(I)c1
- logP: 2.64

Compound: CCNC(=S)Nc1ccccc1
- logP: 1.42

Compound: CN(C)C(=O)Cc1ccsc1
- logP: 0.65

Compound: CCC=O
- logP: 0.59

Compound: Cc1c(-c2ccccc2)oc2ccccc2c1=O
- logP: 3.92

Compound: O=C1OCc2ccccc21
- logP: 0.8

Compound: CCOC(=O)/C(=C/c1ccc(OC)c(OC)c1)C(C)=O
- logP: 2.02

Compound: CSC(=O)Nc1ccc(Cl)c(Cl)c1
- logP: 4.23

Compound: CN1CCOCC1
- logP: -0.33

Compound: CCN(CC)c1c(C)n(CC)c(=O)n(-c2ccccc2)c1=O
- logD (pH 7.4): 2.2

Compound: NC(=O)c1ccccc1F
- logP: 0.64

Compound: Oc1ccc(Nc2ccccc2)cc1
- logD (pH 6.4): 2.82

Compound: CN(c1ccccc1)S(C)(=O)=O
- logP: 1.02

Compound: OC(O)(C(F)(F)F)C(F)(F)F
- logP: 1.46

Compound: O=C(O)CNC(=O)c1ccccc1
- logD (pH 1.0): 0.31

Compound: O=S(Cc1ccccn1)c1nc2ccccc2[nH]1 (stereo unspecified)
- logD (pH 5.0): 1.33

Compound: CNC(=O)NC
- logP: -0.96

Compound: Cc1ccco1
- logP: 1.85

Compound: CN(C)CCCN1c2ccccc2Sc2ccc(S(C)(=O)=O)cc21
- logP: 3.5

Compound: CC(=O)Oc1ccc(N=C2C=CC(=O)C=C2)cc1
- logP: 1.43

Compound: CCCCC1OC(=O)c2cc([N+](=O)[O-])ccc21 (stereo unspecified)
- logP: 2.92

Compound: NC(=O)c1ccoc1
- logP: 0.09

Compound: CNP(=O)(OC)Oc1ccc(C(C)(C)C)cc1Cl (stereo unspecified)
- logP: 3.42

Compound: c1ccc2c(c1)OCO2
- logP: 2.08

Compound: CO[C@@H]1O[C@H](COC(C)=O)[C@@H](OC(C)=O)[C@H](NC(=O)N(CCCl)N=O)[C@H]1OC(C)=O
- logP: 0.67

Compound: CN(C)/N=N/c1ccccc1
- logD (pH 7.4): 2.59

Compound: CC1(C)N=C(N)N=C(N)N1c1ccc(C(F)(F)F)cc1
- logD (pH 13.0): 1.22

Compound: CNCc1ccccc1
- logD (pH 13.0): 1.52

Compound: O=S1(=O)NC=Nc2ccc(Cl)cc21
- logP: 1.07

Compound: O=C(O)COc1ccccc1F
- logD (pH 1.0): 1.39

Compound: O=C(COc1ccccc1)Nc1ccccc1
- logP: 2.73

Compound: Cc1ccc(N2C(N)=NC(N)=NC2(C)C)cc1
- logD (pH 13.0): 0.85

Compound: O=C(/C=C/c1ccccc1)N1CCCCC1
- logP: 2.74

Compound: CCCCCC(C)O (stereo unspecified)
- logP: 2.31

Compound: Cc1nnc(SCC2=C(C(=O)O)N3C(=O)C(NC(=O)Cc4cccs4)C3SC2)s1 (stereo unspecified)
- logD (pH 3.0): 0.67

Compound: CC(=O)Nc1ccc2c(c1)S(=O)(=O)c1ccc(C)cc1C2=O
- logP: 2.76

Compound: c1cn[nH]c1
- logP: 0.13

Compound: CC(=O)OCOC(=O)C1=C(CSC2(C)N=NN=N2)CSC2C(NC(=O)C(O)c3ccccc3)C(=O)N12 (stereo unspecified)
- logD (pH 6.8): 0.75

Compound: CC(CN1CC(=O)NC(=O)C1)N1CC(=O)NC(=O)C1 (stereo unspecified)
- logD (pH 7.4): -1.74

Compound: CN(C)c1ccc(C(N)=O)cc1
- logP: 1.14

Compound: CN1CCCC[C@H]1c1cccnc1
- logD (pH 11.0): 0.96

Compound: N#CCC(=O)Nc1ccc(Cl)c(Cl)c1
- logP: 2.72

Compound: O=C1c2ccccc2C(=O)N1CCCCBr
- logP: 2.96

Compound: O=C(O)Cc1ccc(S(=O)(=O)F)cc1
- logP: 1.86

Compound: CCCC(=O)OCC(O)CO (stereo unspecified)
- logP: -0.17

Compound: Nc1nc2ccccc2c(=O)[nH]1
- logP: 0.6

Compound: CC(=O)NCCC(=O)N(C)c1ccc(S(=O)(=O)N(C)C)cc1
- logP: -0.35

Compound: [O-][n+]1ccccc1SCc1ccccc1
- logP: 1.24

Compound: COC(=O)c1ccc[nH]1
- logP: 1.17

Compound: CCc1ccco1
- logP: 2.4

Compound: c1ccc2[nH]c(CCCCCCc3nc4ccccc4[nH]3)nc2c1
- logP: 1.66

Compound: O=[N+]([O-])c1ccc(C=Cc2ncccn2)o1
- logP: 1.34

Compound: O=c1[nH]nnc2ccccc12
- logP: 0.83

Compound: Nc1nccs1
- logP: 0.38

Compound: CCC1=Nc2ccc(Cl)cc2S(=O)(=O)N1
- logP: 1.62

Compound: CN(c1ccccc1)c1ccccc1
- logD (pH 13.0): 3.9

Compound: CCC(=O)OCC(=O)[C@@]1(OC(=O)CC)[C@H](C)C[C@H]2[C@@H]3C[C@H](F)C4=CC(=O)C(Cl)=C[C@]4(C)[C@@]3(F)[C@@H](O)C[C@@]21C
- logP: 4.22

Compound: CCOP(=S)(Oc1ccc(C#N)cc1)c1ccccc1 (stereo unspecified)
- logP: 4.29

Compound: Nc1n[nH]c(N)n1
- logD (pH 7.4): -1.61

Compound: O=[N+]([O-])c1ccsc1
- logP: 1.55

Compound: CC(=O)Nc1ccc(OC(C)=O)cc1
- logP: 0.8

Compound: CC(C)c1ccccc1OC(=O)N(C)C
- logP: 2.65

Compound: CC(C)c1ccccc1SCc1c(O)c(C(=O)O)cc2ccccc12
- logP: 5.06

Compound: c1ccc(N2CCOCC2)cc1
- logP: 1.36

Compound: O=[N+]([O-])c1ccc(C=Cc2nccc(Cl)n2)o1
- logP: 1.31

Compound: Cc1ccc2[nH]c(CCCCCCc3nc4cc(C)ccc4[nH]3)nc2c1
- logP: 1.76

Compound: COC(=O)c1cc2nc(S(=O)Cc3ncccc3C)[nH]c2cc1C (stereo unspecified)
- logD (pH 5.4): 2.4

Compound: CCCCC
- logP: 3.23

Compound: N#CN=[N+]([O-])c1ccc(Br)cc1
- logP: 2.5

Compound: CN(C)C(=O)c1ccoc1
- logP: 0.24

Compound: CN(C)/N=N/c1cccc([N+](=O)[O-])c1
- logP: 2.75

Compound: CSc1nccc(O)n1
- logP: 0.22

Compound: CC(=O)C(Cc1ccccc1)C(C)=O
- logP: 1.89

Compound: NC(=S)c1ccccc1N
- logP: 0.99

Compound: N#C/C=C/c1ccccc1
- logP: 1.96

Compound: O=c1n[n+]([O-])ccn1Cc1ccccc1
- logP: 0.19

Compound: CC(=NNC(=S)N(C)C)c1cc(C)ccc1O
- logP: 2.26

Compound: O=C(O)c1cccs1
- logP: 1.57

Compound: CCOC(=O)c1ccc([N+](=O)[O-])cc1
- logD (pH 7.0): 2.33

Compound: CC(=O)C(F)(F)F
- logP: 0.2

Compound: CC=CC(=O)Nc1ccc(Cl)c(Cl)c1
- logP: 3.63

Compound: COC(=O)c1ccccc1Cl
- logP: 2.38

Compound: CC(C)c1ccccc1OCC(=O)O
- logP: 2.84

Compound: CC(=O)Nc1cccc(N(C)C)c1
- logP: 1.29

Compound: CCCCC[N+](=O)[O-]
- logP: 2.01

Compound: CC=NO
- logP: -0.13

Compound: CCCCl
- logP: 2.04

Compound: Cc1cc(CSc2ccccc2Cl)c(O)c(C(=O)O)c1
- logP: 4.69

Compound: O=[N+]([O-])c1cccc2ncccc12
- logP: 1.86

Compound: CCCCC1OC(=O)c2cc(Cl)ccc21 (stereo unspecified)
- logP: 3.53

Compound: N#CN=[N+]([O-])c1cccc([N+](=O)[O-])c1
- logP: 1.45

Compound: CC(=O)C(=Cc1ccc(F)cc1)C(C)=O
- logP: 1.65

Compound: O=NN(CCCl)C(=O)NC(C(=O)O)C1CCCCC1 (stereo unspecified)
- logP: -0.63

Compound: CCCCC1OC(=O)c2cc(NC(C)=O)ccc21 (stereo unspecified)
- logP: 2.77

Compound: CCCNc1c(C)n(C)c(=O)n(-c2ccccc2)c1=O
- logD (pH 7.4): 1.2

Compound: OCCCC(F)(F)F
- logP: 0.9

Compound: O=C(Nc1ccccc1)NC1CC(O)C(CO)OC1O (stereo unspecified)
- logP: -0.61

Compound: NNC(=O)NN=Cc1ccccc1
- logP: 0.81

Compound: CC(=O)NCc1ccccc1
- logP: 0.95

Compound: c1cncc(CN2CCOCC2)c1
- logD (pH 11.0): 0.04

Compound: NC(=O)c1ccc(Cl)cc1
- logP: 1.53

Compound: CCc1ccccc1NC(C)=O
- logP: 1.33

Compound: CC(=O)OC1CCCCC1NC(=O)N(CCCl)N=O (stereo unspecified)
- logP: 1.93

Compound: O=Cc1cccs1
- logP: 1.02

Compound: COc1ccc2[nH]c(C(O)C(O)c3nc4cc(OC)ccc4[nH]3)nc2c1 (stereo unspecified)
- logP: 1.05

Compound: O=[N+]([O-])c1ccc(C=Cc2nc3ccccc3[nH]2)o1
- logP: 1.4

Compound: CN(C)/N=N/c1cc(C#N)cc(C#N)c1
- logP: 2.18

Compound: CN1C(=O)c2ccccc2C1=O
- logP: 1.31

Compound: OCc1cccs1
- logP: 0.87

Compound: Cc1cccs1
- logP: 2.33

Compound: C[C@@H]1C[C@@H]([C@H](O)CC2CC(=O)NC(=O)C2)C(=O)[C@@H](C)C1
- logP: 0.55

Compound: CC[N+](=O)[O-]
- logP: 0.18

Compound: NNC(=O)c1ccccc1
- logP: 0.21

Compound: CC(C)C#CN(C)C(C)C
- logD (pH 9.2): 2.29

Compound: CCCCC1CC(C(=O)NC(C(C)Cl)C2OC(SC)C(O)C(O)C2O)N(CC)C1 (stereo unspecified)
- logD (pH 12.0): 3.21

Compound: N#Cc1ccc(C(N)=O)cc1
- logP: 0.48

Compound: FC(F)(F)c1cccc2cccnc12
- logP: 2.5

Compound: CC(=O)OCC1CCC(NC(=O)N(CCCl)N=O)CC1 (stereo unspecified)
- logP: 2.24

Compound: CCC[C@@H]1C[C@@H](C(=O)N[C@@H]([C@H]2O[C@H](SCC)[C@H](O)[C@@H](O)[C@H]2O)[C@@H](C)O)N(CC)C1
- logD (pH 12.0): 1.91

Compound: OC(C1CO1)C(O)C1CO1 (stereo unspecified)
- logP: -1.29

Compound: COc1ccc(N2C(N)=NC(N)=NC2(C)C)cc1
- logD (pH 13.0): 0.4

Compound: COc1cc(OC)cc(OC(=O)CNC(=O)c2ccccc2)c1
- logP: 2.69

Compound: O=C1CC(=O)NC(=O)N1
- logD (pH 2.0): -1.41

Compound: CCc1n[nH]c(=O)[nH]c1=O
- logP: 0.22

Compound: CCOP(=O)(N1CC1(C)C)N1CC1(C)C (stereo unspecified)
- logP: 1.02

Compound: Cc1ccsc1
- logP: 2.34

Compound: O=[N+]([O-])c1ccc(C=Cc2nc[nH]n2)o1
- logP: 1.1

Compound: O=C1C2(Cl)C3(Cl)C4(Cl)C(Cl)(Cl)C5(Cl)C3(Cl)C1(Cl)C5(Cl)C24Cl (stereo unspecified)
- logP: 5.41

Compound: O=[N+]([O-])c1cn[nH]c1
- logP: 0.59

Compound: NC(=O)Cc1ccsc1
- logP: 0.31

Compound: O=NN(CCF)C(=O)NC1CCC(NC(=O)N(CCF)N=O)CC1 (stereo unspecified)
- logP: 1.34

Compound: CC(=O)N[C@@H]1CC(=O)N(c2ccc(Cl)cc2)C1=O
- logP: 0.75

Compound: N#CC(=Cc1ccccc1)C(=O)Nc1ccccc1
- logP: 3.41

Compound: C=CCn1c(=O)c(N(C)C)c(C)n(-c2ccccc2)c1=O
- logD (pH 7.4): 1.98

Compound: O=Cc1ccc2c(c1)OCO2
- logP: 1.05

Compound: Cc1c(N(C)C)c(=O)n(-c2ccccc2)c(=O)n1C
- logD (pH 7.4): 1.3

Compound: O=S1(=O)N=C(C2CCCC2)Nc2ccccc21
- logP: 1.83

Compound: Nc1ccccc1S
- logP: 1.43

Compound: CC(C)CO
- logP: 0.65
